Reference: article PMC4301629 (PLoS ONE, 2015)

System: CCR5_CHO cells
Assay: Ca2+ transient response in CCR5_CHO negative control cells
Type: cell-based, Chinese hamster
Details: S4 Fig.
Procedure: Cells were resuspended in Hank’s balanced salt solution (Invitrogen) supplemented with 2 mM CaCl2, 10 mM HEPES pH 7.4, 2.5 mM probenecid, plus 1g/L each of glucose and bovine serum albumin (BSA), and seeded in poly-D-lysine coated 96-well black plates with transparent bottom (Costar) at a density of 50,000 cells/0.1 mL per well. Cells were then incubated for 1 h at 37°C with an additional 0.1 mL of buffer containing 4 μM fluo3-AM that was diluted from a stock solution containing 1 mM fluo3-AM dye in DMSO with 10% pluronic acid. After dye loading incubation, plates were washed twice with 100 μL of buffer and refilled with 100 μL of assay buffer. In experiments testing the effect of antagonists, 25 μL of buffer from wells of washed cells were replaced with 25 μL of vehicle or 4× antagonist solution. […] Agonist-evoked Ca^2+ mobilization responses of cell populations were monitored at room temperature simultaneously in all wells of the assay plate using the plate-imaging fluorometric reader FLIPR (MDS Analytical Technologies, Sunnyvale, CA). Measurements consisted of recording baseline fluorescence signal for 10 seconds followed by addition of the test substance and 1–2 minute readings of Ca^2+ transient responses as reported by changes in Ca^2+ dye fluorescence (excitation 488 nm, emission 510–570 nm). […]

## CC(C)NCC(O)c1ccc(O)c(O)c1 (stereo not shown) [Iso, isoproterenol]
  Ca2+ transient response: not observed
